Experiments:
[1] = system: ischemic zone of myocardium; assay: model of acute attack of stenocardia (Sekeresh's model) in anesthetized dogs; format: in vivo
Excerpt: The effect of the preparation on the functional state of the ischemic center has been studied in experiments on dogs under the conditions of general anesthesia. The effects caused by the preparation have been studied on the model of an acute attack of stenocardia (Sekeresh's model). The functional state of the ischemic focus has been assessed through analysis of epicardial heart electrograms in the ischemic zone and adjacent regions. The stenocardiac attack is caused by way of a partial occlusion of the coronary artery (left descending artery) and including a high rhythm of heart contractions (up to 250 beats/minute) by way of electrical stimulation of the heart auricula. Under these conditions there take place changes of the heart electrograms typical for acute ischemia of myocardium.

[2] = system: patients suffering from ischemic heart disease; assay: clinical test in patients with ischemic heart disease; format: in vivo, human patients
Description: There were studied 84 patients aged 29 to 77 (46 men and 38 women) suffering from ischemic heart disease.
The patients with ischemic heart disease were classified by stages: stage 1-18 persons, stage 2-40 persons, stage […] (according to L. I. Fogelson, 1972). In 46 patients there was the attendant hypertonic disease of the second stage.
The remoteness of the disease was varied from 6 months to 22 years. The preparation was administered perorally in doses of 0.6-0.9 g 3-4 times a day. The daily dose is 1.8-3.6 g. The treatment course was 7 to 60 days; after a 5-7 days' interval the treatment was resumed depending on its efficiency so that the total course duration was up to 6 months. The effectiveness of the treatment was evaluated by the dynamics of complaints, clinic chart, objective data of pulse and arterial pressure, electrocardiographic and biochemical characteristics.

[3] = patients with attendant hypertonic disease

CN1C(=O)N(C)C2C1N(C)C(=O)N2C (stereo not shown) [the preparation, 2,4,6,8-tetramethyl-2,4,6,8-tetraazobicyclo-/3,3,0/-octanedione-3,7]
ischemic changes of epicardial electrograms in the zone of ischemia ([1]; 200 mg/kg, dogs): inhibited the development of ischemic changes of epicardial electrograms in the zone of ischemia
blood inflow into the ischemic zone (retrograde blood flow) ([1]; dogs): considerably increase the blood inflow into the ischemic zone
activity compared with nonachlazine (sum of pharmacological effects) ([1]; experimental model of acute myocardium ischemia): more active (as regards the sum of pharmacological effects) than the known preparation nonachlazine
potassium in plasma ([2]; after treatment, before 3.82±0.16): 3.45±0.08 mequiv/l
number of erythrocytes ([2]; after treatment, before 4.6±0.3): 5.3±0.3 mln in mm^3
content of total protein ([2]; after treatment, before 7.73±0.1%): 8.65±0.25%
content of lymphocytes ([2]; after treatment, before 26.9±1.2%): 31.0±2.8%
potassium in erythrocytes ([2]; after treatment, before 65.7±5.7): 80.2±5.2 mequiv/l
hemoglobin ([2]; after treatment, before 82.7±2.6%): 86.3±3.2%
cholesterol ([2]; after treatment, before 294.0±16.4%): 245±15.0 mg %
leucocytes ([2]; after treatment, before 5,520±499): 6,080±221 in mm^3
content of prothrombin ([2]; during the treatment course): not changed
content of sodium in erythrocytes and plasma ([2]; human, in vivo): not substantially changed
contraindications ([2]; human, in vivo): No contraindications against the administration of the preparation have been revealed
patients with good therapeutic effect ([2]; human, in vivo): 77 % of the patients
remaining fractions of proteinogram ([2]; human, in vivo): insignificant opposite-sign variations
side effects ([2]; human, in vivo): Side effects are absent
day at which amelioration of the condition was observed [2, 3]: 2 to 5 days
pulse [2, 3]: pulse normalization
minimal arterial pressure ([2]; patients with attendant hypertonic disease, after treatment, before 102.2±1.2): 89.7±4.0 mm Hg
maximum arterial pressure ([2]; patients with attendant hypertonic disease, after treatment, before 180.8±3.9): 161.4±3.8 mm Hg
electrogram ([2]; perorally 1.8-3.6 g daily): rhythm normalization
frequency and intensity of stenocardia attacks ([2]; perorally 1.8-3.6 g daily): reduced
metabolic processes ([2]; perorally 1.8-3.6 g daily): amelioration of metabolic processes
gamaglobulins ([2]; proteinogram, after treatment, before 19.87±1.83%): 22.54±2.31%

From US4571403A, “Antianginal medicated compound” (Institut Organicheskoi Khimii Imeni N.D. Zelinskogo …, priority 1984, dated 1986)
